From US11446351B2, “Composition for treating one or more estrogen related diseases” (LIFEARC, priority 2018, dated 2022)
Where a name gives a salt, the structure may show the parent alone. Where a SMILES comes first, the peptide text is derived from it. [ ]: non-standard residue; d: D form. dPhe(4-Cl) = N[C@H](Cc1ccc(Cl)cc1)C(=O)O; d2Nal = N[C@H](Cc1ccc2ccccc2c1)C(=O)O; d(hCit) = NC(=O)NCCCC[C@@H](N)C(=O)O; Lys(iPr) = CC(C)NCCCC[C@H](N)C(=O)O; d3Pal = N[C@H](Cc1cccnc1)C(=O)O

How the values were obtained:
Assay type in all cases: in vivo, human
healthy female subjects = test: Phase I trial (Example 1): progesterone, LH and FSH in serum
Protocol: (§1) A phase I clinical trial with formulation A and B (and placebo) was conducted in order to evaluate the pharmacokinetics, pharmacodynamics, safety and tolerability of Teverelix TFA.
(§2) The formulations were each injected subcutaneous (s.c.) as follows: • A single dosage of formulation A (60 mg Teverelix TFA) administered s.c. on day 3±1 of the menstrual cycle, to 8 healthy female subjects • A single dosage of formulation A placebo was administered s.c. to on day 3±1 of the menstrual cycle, to 4 healthy female subjects • Two dosages of formulation B (45 mg Teverelix TFA) administered s.c. to 8 healthy female subjects. The first dosage on day 3±1 of the menstrual cycle and a second dosage administered on day 10±1 of the menstrual cycle, and • two dosages of formulation B placebo was administered s.c. to 4 healthy female subjects. The first dosage on day 3±1 of the […] menstrual cycle and a second dosage administered on day 10±1 of the menstrual cycle.

women [1] = test: Phase I study (Example 2): bone marker deoxypyridinoline (DPD) in urine; conditions: 30 mg and 45 mg, days 1-64, FIG. 7
Protocol: (§3) In order to evaluate the effect of the treatment with Teverelix TFA on the bone mineral density, two biochemical bone mineral markers was measured in the subjects. Telopeptides type I collagen, cross-linked, […] (CTX) was measured in serum of the treated subjects, and deoxypyridinoline (DPD) was measured in the subject's urine.
(§4) Said bone markers were measured on the following days in the test period: 1 (pre-dose), 15, 29, 43, 57, 64
(§5) DPD is a dynamic biochemical marker of bone loss. An increase in DPD levels in an early morning urine specimen is a reliable indicator of increased bone loss. The CTX test measures for the presence and concentration of a crosslink peptide sequence of type I collagen, found, among other tissues, in bone. This specific peptide sequence relates to bone turnover because it is the portion that is cleaved by osteoclasts during bone resorption, and its serum levels are therefore proportional to osteoclastic activity at the time the blood sample is drawn.
(§6) The concentration of DPD and CTX test were carried out at MOS Pharma Services, Central Lab GmbH, Grossmoorbogen 25, 21079 Hamburg, Germany by means of highly sensitive and specific validated chemi-luminescent (CUA) and enzyme-linked immuno-sorbent (ELISA) methods. The results are shown in FIG. 7 and table 6 respectively.

[2] = Phase I study (Example 2): Teverelix TFA concentrations in serum
Protocol: Two formulations comprising either 45 mg or 30 mg Teverelix TFA and a placebo formulations, were prepared as described in example 1, i.e. the following formulations were prepared
The respective formulations were each injected subcutaneous (s.c.) to 24 subjects—12 per group i.e. 8 on active drug 4 on placebo per group. All subjects received a dose on either the active or placebo s.c. on day 3±1 of the menstrual cycle, i.e. • A single dosage of formulation B (45 mg Teverelix TFA) administered s.c. on day 3±1 of the menstrual cycle, • A single dosages of formulation C (30 mg Teverelix TFA) administered s.c. on day 3±1 of the menstrual cycle, and • A single dosage of formulation B placebo or formulation C placebo administered s.c. on day 3±1 of the menstrual cycle.
The concentration of Teverelix TFA, and Estradiol was measured over a period of 63 days. Additionally, the effect on Teverelix TFA on two bone markers was measured.
The mean Teverelix TFA concentration in the serum of the respective subjects was measured.

[3] = Phase I trial (Example 1): pharmacokinetics, total systemic exposure of Teverelix
Protocol: The Teverelix TFA formulations were manufactured as followed. 0.8 ml or 0.6 ml 5% mannitol were added to the relevant dosage of 60 or 45 mg of the LHRH antagonist Teverelix® trifluoroacetate, respectively. The mixture was stirred using vortex during one minute providing two dosage formulations of Teverelix TFA in a flowing milky pearly microcrystalline aqueous suspensions. The suspensions are made of microcrystals of about 10 μm length. Corresponding placebo formulations, without Teverelix TFA was also prepared
as §1, §2

women [4] = test: Phase I study (Example 2): bone marker CTX in serum
Protocol: as §3, §4, §5, §6

[5] = 60 mg single s.c. (Treatment Group 1)
[6] = 2 × 45 mg s.c. (Treatment Group 2)

alteration in bone marker urine DPD during the study (women [1]): no significant alteration
period with quantifiable levels in serum ([2]; 30 mg dose): 42 days
Mean Teverelix TFA concentration in serum ([2]; 30 mg s.c., 0 h): 0.00 ng/L
period with quantifiable levels in serum ([2]; 45 mg dose): 64 days
Mean Teverelix TFA concentration in serum ([2]; 45 mg s.c., 0 h): 0.00 ng/L
Mean Teverelix TFA concentration in serum ([2]; 30 + 45 mg groups, 0 h): 0.00 ng/L
Mean Teverelix TFA concentration in serum ([2]; 30 + 45 mg groups, 0.5 h): 5.79 ng/L
AUC(0−cq), Geometric Mean [3, 5]: 1.592 µM·h
AUC(0−t), Geometric Mean [3, 5]: 1.907 µM·h
CmaxInit1, Geometric Mean [3, 5]: 10.9 nM
CmaxLate, Geometric Mean [3, 5]: 2.63 nM
AUC(0−cq), Geometric Mean [3, 6]: 2.323 µM·h
AUC(0−t), Geometric Mean [3, 6]: 2.833 µM·h
CmaxInit1, Geometric Mean [3, 6]: 6.03 nM
CmaxInit2, Geometric Mean [3, 6]: 7.03 nM
CmaxLate, Geometric Mean [3, 6]: 3.63 nM
total systemic exposure, two injections of 45 mg one week apart compared with a single 60 mg injection ([3]; s.c., healthy female subjects): approximately 1.5 fold
alteration in bone marker serum CTX during the study (women [4]; 30 mg and 45 mg, days 1-64): no significant alteration
CTX in serum, Mean (women [4]; 30 mg, Day 1 (pre-dose)): 16.7 ng/L
CTX in serum, Mean (women [4]; 30 mg, Day 15): 17.1 ng/L
CTX in serum, Mean (women [4]; 30 mg, Day 29): 17 ng/L
CTX in serum, Mean (women [4]; 30 mg, Day 43): 16.7 ng/L
CTX in serum, Mean (women [4]; 30 mg, Day 57): 16.5 ng/L
CTX in serum, Mean (women [4]; 30 mg, Day 64): 16.2 ng/L
CTX in serum, Mean (women [4]; 45 mg, Day 1 (pre-dose)): 22.6 ng/L
CTX in serum, Mean (women [4]; 45 mg, Day 15): 22.4 ng/L
CTX in serum, Mean (women [4]; 45 mg, Day 29): 21.6 ng/L
CTX in serum, Mean (women [4]; 45 mg, Day 43): 22 ng/L
CTX in serum, Mean (women [4]; 45 mg, Day 57): 19.3 ng/L
CTX in serum, Mean (women [4]; 45 mg, Day 64): 17.3 ng/L
Compound: CC(=O)N[C@H](Cc1ccc2ccccc2c1)C(=O)N[C@H](Cc1ccc(Cl)cc1)C(=O)N[C@H](Cc1cccnc1)C(=O)N[C@@H](CO)C(=O)N[C@@H](Cc1ccc(O)cc1)C(=O)N[C@H](CCCCNC(N)=O)C(=O)N[C@@H](CC(C)C)C(=O)N[C@@H](CCCCNC(C)C)C(=O)N1CCC[C@H]1C(=O)N[C@H](C)C(N)=O [Teverelix TFA, N-Ac-d-Nal^1,d-pCl-Phe^2,d-Pal^3,d-(Hci)^6,Lys(iPr)^8,d-Ala^10 trifluoroacetate] (Ac-[d2Nal][dPhe(4-Cl)][d3Pal]SY[d(hCit)]L[Lys(iPr)]P[dA]-NH2; C-terminus assumed)
concentration of progesterone following dosing (healthy female subjects; FIG. 2): decreased
concentration of LH following dosing (healthy female subjects; FIG. 3): decreased
concentration of FSH following dosing (healthy female subjects; FIG. 4): decreased
